From patent publication US8455497B2, “Inhibitors of aspartyl protease” (Vertex Pharmaceuticals Incorporated, priority 1999, dated 2013)
Where two headings read alike, the source gives them in different places.

Key:
[1] = tested on: EP13 multi protease inhibitor resistant virus; test: Anti-viral activity against resistant virus EP13 in MT4 cells; format: cell-based, HIV-1
In short: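 MT4 cells infected for 1 h at 37 °C, MOI 100×TCID50, then diluted 6-fold onto pre-diluted compound and cultured 5 days (5% CO2). Viable-cell DNA content estimated by propidium iodide. EP13 carries protease mutations M46I, L63P, A71V, V82F/L, I84V, no RT mutations.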

[2] = tested on: D545701-14 multi protease inhibitor resistant virus; test: Anti-viral activity against resistant virus D545701-14 in MT4 cells; format: cell-based, HIV-1
HIV-1 (strain IIIB) = test: Antiviral activity assay in MT4 cells (propidium iodide based); format: cell-based; conditions: Human immunodeficiency virus 1, IIIB; wild type HIV-1 virus, MT4 cells; read-out: Wildtype virus - IC50
In short: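 MT4 cells infected with HIV-1 IIIB (MOI 100×TCID50, 1 hr, 37°C), diluted 6-fold into wells with serially diluted compound, incubated 5 days. Cells lysed with Nonidet-40; DNA content per well estimated by propidium iodide staining as the viability read-out, with mock-infected controls.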

[3] = Human immunodeficiency virus 1, MT4, read-out: EP13 mutant IC50, EP13 multi protease inhibitor resistant virus, MT4 cells
[4] = Human immunodeficiency virus 1, MT4, read-out: D545701-14 mutant - IC50, D545701-14 multi protease inhibitor resistant virus, MT4 cells

Compound: Cc1cccc(COc2ccc(C[C@H](NC(=O)O[C@H]3CO[C@H]4OCC[C@H]43)[C@H](O)CN(CC(C)C)S(=O)(=O)c3ccc4c(c3)OCO4)cc2)c1 [Compound 377, (3R,3aS,6aR)-hexahydrofuro[2,3-b]furan-3-yl (1S,2R)-3-[(1,3-benzodioxol-5-ylsulfonyl)(isobutyl)amino]-2-hydroxy-1-{4-[(3-methylbenzyl)oxy]benzyl}propylcarbamate]
- IC50 [1, 3]: 1 to 10 nM
- IC50 [2, 4]: 10 to 100 nM
- IC50 (HIV-1 (strain IIIB)): 1 to 10 nM

Compound: CCCCNC(=O)CCCOc1ccc(C[C@H](NC(=O)O[C@H]2CO[C@H]3OCC[C@H]32)[C@H](O)CN(CC(C)C)S(=O)(=O)c2ccc3c(c2)OCO3)cc1 [Compound 288, (3R,3aS,6aR)-hexahydrofuro[2,3-b]furan-3-yl (1S,2R)-3-[(1,3-benzodioxol-5-ylsulfonyl)(isobutyl)amino]-1-{4-[4-(butylamino)-4-oxobutoxy]benzyl}-2-hydroxypropylcarbamate]
- IC50 [1, 3]: 1 to 10 nM
- IC50 [2, 4]: 1 to 10 nM
- IC50 (HIV-1 (strain IIIB)): 1 to 10 nM

Compound: CNC(=O)OCCCC(C)(C)CN(C[C@@H](O)[C@H](Cc1ccc(OCc2ccccc2)cc1)NC(=O)OC1CO[C@H]2OCC[C@@H]12)S(=O)(=O)c1ccc2c(c1)OCO2 (stereo partly drawn) [Compound 361]
- IC50 [1, 3]: 10 to 100 nM
- IC50 [2, 4]: 10 to 100 nM
- IC50 (HIV-1 (strain IIIB)): 1 to 10 nM

Compound: CCC(CC)ON(C[C@@H](O)[C@H](Cc1ccc(OCc2ccccc2)cc1)NC(=O)O[C@H]1CO[C@H]2OCC[C@H]21)S(=O)(=O)c1ccc2c(c1)OCO2 [Compound 329, (3R,3aS,6aR)-Hexahydrofuro[2,3-b]furan-3-yl (1S,2R)-3-[(1,3-benzodioxol-5-ylsulfonyl)(1-ethylpropoxy)amino]-1-[4-(benzyloxy)benzyl]-2-hydroxypropylcarbamate]
- IC50 [1, 3]: 10 to 100 nM
- IC50 [2, 4]: 10 to 100 nM
- IC50 (HIV-1 (strain IIIB)): 1 to 10 nM

Compound: CC(C)CN(C[C@@H](O)[C@H](Cc1ccc(OCc2ccccn2)cc1)NC(=O)O[C@@H]1CO[C@H]2OCC[C@H]21)S(=O)(=O)c1ccc(N)cc1 [Compound 299, (3S,3aS,6aR)-hexahydrofuro[2,3-b]furan-3-yl (1S,2R)-3-[[(4-aminophenyl)sulfonyl]-(isobutyl)amino]-2-hydroxy-1-[4-(2-pyridinylmethoxy)benzyl]propylcarbamate]
- IC50 [1, 3]: 1 to 10 nM
- IC50 [2, 4]: 1 to 10 nM
- IC50 (HIV-1 (strain IIIB)): 1 to 10 nM

Compound: CC(C)CN(C[C@@H](O)[C@@H](N)Cc1ccc(OCc2ccccc2)cc1)S(=O)(=O)c1ccc2c(c1)OCO2 [Compound 308, N-{(2R,3S)-3-Amino-4-[4-(benzyloxy)phenyl]-2-hydroxybutyl}-N-isobutyl-1,3-benzodioxole-5-sulfonamide]
- IC50 [1, 3]: 1 to 10 nM
- IC50 [2, 4]: 1 to 10 nM
- IC50 (HIV-1 (strain IIIB)): 10 to 100 nM

Compound: COc1ccc(-c2nc(COc3ccc(C[C@H](NC(=O)O[C@H]4CO[C@H]5OCC[C@H]54)[C@H](O)CN(CC(C)C)S(=O)(=O)c4ccc5c(c4)OCO5)cc3)no2)cc1 [Compound 391, (3R,3aS,6aR)-hexahydrofuro[2,3-b]furan-3-yl (1S,2R)-3-[(1,3-benzodioxol-5-ylsulfonyl)(isobutyl)amino]-2-hydroxy-1-(4-{[5-(4-methoxyphenyl)-1,2,4-oxadiazol-3-yl]methoxy}benzyl)propylcarbamate]
- IC50 [1, 3]: 1 to 10 nM
- IC50 [2, 4]: 1 to 10 nM
- IC50 (HIV-1 (strain IIIB)): 1 to 10 nM

Compound: CC(C)CN(C[C@@H](O)[C@H](Cc1ccc(OCc2cccc(F)c2)cc1)NC(=O)O[C@H]1CO[C@H]2OCC[C@H]21)S(=O)(=O)c1ccc2c(c1)OCO2 [Compound 378, (3R,3aS,6aR)-hexahydrofuro[2,3-b]furan-3-yl (1S,2R)-3-[(1,3-benzodioxol-5-ylsulfonyl)(isobutyl)amino]-1-{4-[(3-fluorobenzyl)oxy]benzyl}-2-hydroxypropylcarbamate]
- IC50 [1, 3]: 1 to 10 nM
- IC50 [2, 4]: 10 to 100 nM
- IC50 (HIV-1 (strain IIIB)): 1 to 10 nM

Compound: CC(C)CN(C[C@@H](O)[C@H](Cc1ccc(OCCN(C)C)cc1)NC(=O)O[C@H]1CO[C@H]2OCC[C@H]21)S(=O)(=O)c1ccc2c(c1)OCO2 [Compound 359, (3R,3aS,6aR)hexahydrofuro[2,3-b]furan-3-yl (1S,2R)-3-[(1,3-benzodioxol-5-ylsulfonyl)(isobutyl)amino]-2-hydroxy-1-[4-(2-[dimethylamino]ethoxy)benzyl]propylcarbamate]
- IC50 [1, 3]: 10 to 100 nM
- IC50 [2, 4]: 10 to 100 nM
- IC50 (HIV-1 (strain IIIB)): 10 to 100 nM

Compound: CC(C)CN(C[C@@H](O)[C@H](Cc1ccc(OC(=O)N(C)C)cc1)NC(=O)O[C@H]1CO[C@H]2OCC[C@H]21)S(=O)(=O)c1ccc2c(c1)OCO2 [Compound 311, (3R,3aS,6aR)-Hexahydrofuro[2,3-b]furan-3-yl (1S,2R)-3[(1,3-benzodioxol-5-ylsulfonyl)(isobutyl)amino]-1-(4-{[(dimethylamino)carbonyl]oxy}benzyl)-2-hydroxypropylcarbamate]
- IC50 ([1]; Human immunodeficiency virus 1, MT4, read-out: EP13 mutant IC50): 1 to 10 nM
- IC50 ([2]; Human immunodeficiency virus 1, MT4, read-out: D545701-14 mutant - IC50): 10 to 100 nM
- IC50 (HIV-1 (strain IIIB)): 1 to 10 nM

Compound: Cc1cc(S(=O)(=O)N(CC(C)C)C[C@@H](O)[C@H](Cc2ccc(OCc3ccccn3)cc2)NC(=O)O[C@H]2CO[C@H]3OCC[C@H]32)ccc1O [Compound 295]
- IC50 [1, 3]: 1 to 10 nM
- IC50 [2, 4]: 1 to 10 nM
- IC50 (HIV-1 (strain IIIB)): 1 to 10 nM

Compound: CC(C)CN(C[C@@H](O)[C@H](Cc1ccc(OCCCCO)cc1)NC(=O)O[C@H]1CO[C@H]2OCC[C@H]21)S(=O)(=O)c1ccc2c(c1)OCO2 [Compound 317, (3R,3aS,6aR)-Hexahydrofuro[2,3-b]furan-3-yl (1S,2R)-3-[(1,3-benzodioxol-5-ylsulfonyl)(isobutyl)amino]-2-hydroxy-1-[4-(4-hydroxybutoxy)benzyl]propylcarbamate]
- IC50 [1, 3]: 1 to 10 nM
- IC50 [2, 4]: 1 to 10 nM
- IC50 (HIV-1 (strain IIIB)): 1 to 10 nM

Compound: CC(C)CN(C[C@@H](O)[C@H](Cc1ccc(OCCCCN/C(=N/C#N)Oc2ccccc2)cc1)NC(=O)O[C@H]1CO[C@H]2OCC[C@H]21)S(=O)(=O)c1ccc2c(c1)OCO2 [Compound 263, (3R,3aS,6aR)-hexahydrofuro[2,3-b]furan-3-yl (1S,2R)-3-[(1,3-benzodioxol-5-ylsulfonyl)(isobutyl)amino]-1-[4-(4{[(E and/or Z)-(cyanoimino)(phenoxy)methyl]amino}butoxy)benzyl]-2-hydroxypropylcarbamate]
- IC50 [1, 3]: 1 to 10 nM
- IC50 [2, 4]: 1 to 10 nM
- IC50 (HIV-1 (strain IIIB)): 1 to 10 nM

Compound: CC(C)CN(C[C@@H](O)[C@H](Cc1ccc(OCc2cccc(C#N)c2)cc1)NC(=O)O[C@H]1CO[C@H]2OCC[C@H]21)S(=O)(=O)c1ccc2c(c1)OCCO2 [Compound 338, (3R,3aS,6aR)-hexahydrofuro[2,3-b]furan-3-yl (1S,2R)-1-{4-[(3-cyanobenzyl)oxy]benzyl}-3-[(2,3-dihydro-1,4-benzodioxin-6-ylsulfonyl)(isobutyl)amino]-2-hydroxypropylcarbamate]
- IC50 [1, 3]: 1 to 10 nM
- IC50 [2, 4]: 1 to 10 nM
- IC50 (HIV-1 (strain IIIB)): 1 to 10 nM

Compound: CC(C)(CCCC#N)CN(C[C@@H](O)[C@H](Cc1ccc(OCc2ccccc2)cc1)NC(=O)O[C@H]1CO[C@H]2OCC[C@H]21)S(=O)(=O)c1ccc2c(c1)OCO2 [Compound 305, (3R,3aS,6aR)-Hexahydrofuro[2,3-b]furan-3-yl (1S,2R)-3-[(1,3-benzodioxol-5-ylsulfonyl)(5-cyano-2,2-dimethylpentyl)amino]-1-[4-(benzyloxy)benzyl]-2-hydroxypropylcarbamate]
- IC50 [1, 3]: 1 to 10 nM
- IC50 [2, 4]: 1 to 10 nM
- IC50 (HIV-1 (strain IIIB)): 1 to 10 nM
